Data reported in US7271158B2, “Treatment of rumen acidosis with α-amylase inhibitors” (Pfizer Inc., priority 2000, dated 2007).

Key:
[1] = tested on: acute acidosis after carbohydrate challenge in cannulated cattle; assay: Acute acidosis model (carbohydrate challenge); assay type: in vivo, Holstein dried off cows and heifers
From the text: Acute Acidosis Model: Assessment of Acarbose [table] Procedures: Ten Holstein dried off cows and heifers (initial weight 740±27 (SE) kg, range=606–870 kg) were group-housed during the pre-treatment period and individually housed during the experimental period. Animals were moved to a head-gate during sample collection, treatment and first challenge. Subsequently, they were sampled and dosed in their individual pens. Animals were offered approximately 5 kg alfalfa hay, 16 kg silage, 6 kg concentrate and 0.5 kg straw daily in a total mixed ration offered in two feedings (60:40 concentrate:roughage diet ). They were bedded on straw only during the pre-treatment period. Water was provided ad libitum. Animals were adapted to the lactating ration for at least 10 days before treatments were administered. From a group of 6 dry cows and 5 non-lactating heifers, ten were selected based on previous exposure to challenge and general health. Animals were paired by body weight and were randomly assigned to control and acarbose treatment groups within pair, ensuring similar distribution of heifers and cows. On days 0–6 of treatment, animals received 1.07 mg acarbose/kg dissolved in ˜200 mL water through the rumen cannula just before AM (07:30) and PM (16:00) feedings. Treatment 1 animals received an equivalent amount of water only. On days 7 and 8, each animal was administered a challenge through the cannula. When pH reached ˜4.5 and there was evidence of L-lactate production, acute acidosis was considered to be induced. When an animal experienced acute acidosis by these criteria, rumen contents were removed and the rumen inoculated with rumen contents from a donor animal. Animals were weighed on days—1 and 5 for calculation of acarbose dosing and challenge amounts. To measure rumen fluid pH animals were fitted with a harness to hold an automatic pH data recording system. The rumen pH was recorded every 10 min during the days of challenge until an animal experienced acute acidosis. Rumen fluid samples were taken (˜50 mL) from the rumen cannula through a filtered sampling tube. […] The pH was measured immediately. […] In some cases the sample was filtered through gauze before pH measurement and acid treatment. This mixture was centrifuged for 10 min at 12000 g. One aliquot of the supernatant was removed for immediate lactate analysis, one frozen for subsequent lactate analysis using Sigma kit 826. A third aliquot was transferred to an auto-sampler vial for subsequent VFA analysis. An initial determination of L-lactate was made during the study to establish acidotic status using Sigma kit 735. Subsequently D and L-lactate were re-measured for statistical analysis as described below. VFA's were measured on a Hewlett Packard 6890 series gas chromatograph fitted with an auto-sampler and flame ionisation detector. The acids were resolved on a SGE Ltd. 25 metre BP21 column (0.33 mm O.D., 0.22 mm I.D. 0.25 um film thickness). Nitrogen was used as the carrier gas with a flow rate of 1.9 ml/min. The oven temperature was 165° C., and injection ports and detectors were held at 250° C. Concentrations were calculated by using crotonic acid as an internal standard, and the system was calibrated using a standard solution containing acetic, propionic, butyric, iso-valeric and n-valeric acids.

Salm. enteritidis = assay: Minimum inhibitory concentrations in aerobes (agar dilution)
[2] = molecular target: rumen fluid supernatant amylases; assay: Rumen bacterial amylase assay, protocol 1 (Sigma amylase kit 577); assay type: biochemical, rumen bacteria, Hereford×Friesian calves; conditions: rumen fluid amylase screen using Sigma kit 577
From the text: Rumen Bacterial Amylase Assay—Protocol 1
The enzymatic reactions involved in the assay are as follows:
5 ET-G7PNP→(α-amylase)→2 ET-G5+2 G2PNP+2 ET-G4+2 G3PNP+ET-G3+G4-PNP2 G2PNP+2 G3 PNP→(α-glucosidase)→4 PNP +10 glucose
α-Amylase hydrolyses 4,6-ethylidene-G7-PNP (ET-G7 PNP) to G2, G3 and G4 PNP fragments. α-Glucosidase (α-1,4-glucan glucohydrolase EC 3.2.1.3) hydrolyses G2PNP and G3PNP to yield p-nitrophenol and glucose. Five moles of substrate (ET-G7PNP) is hydrolysed to yield 4 moles of p-nitrophenol p-Nitrophenol absorbs light as 405 nm, and following a two minute lag period the rate of increase in absorbance at 405 nm is directly proportional to α-amylase activity in the well.
Rumen fluid was collected from 4-month-old Hereford×Friesian calves (125–135 kg, supplied by Cwmnant Calves Ltd. Cwmnant. Tregaron. Ceredigion) fed on diet GH 313. The rumen fluid was collected from slaughtered calves into pre-warmed vacuum flasks, as soon as possible after euthanasia. It was then filtered through a double layer of absorbent gauze (Absorbent gauze BP, GAUZ 4 from Robert Bailey plc, Stockport) to remove hay and feed particles. The liquid was centrifuged at a relative centrifugal force of 23,300 for 60 minutes, and the supernatant decanted, avoiding contamination from the loose top layer of the pellet by careful pouring. The supernatant was then aliquoted into 50 ml plastic tubes and frozen at […]. When required for use in an assay the rumen fluid supernatant was thawed by standing the tubes in cold water. Test compounds or controls were dispensed into the 96-well assay plate at 4 μl/well. 100 μl per well of Sigma amylase reagent 577 (made up to half the volume described in the instructions (i.e. 10 ml for a 577-20 vial)) was then added to each well, followed by 100 μl per well of rumen fluid supernatant. A T=0 reading at 405 nm was taken at this stage using an Anthos plate reader. The plate was then incubated at room temperature or 37° C. until an optical density window of approximately 1.000U was seen (typically one hour at 37° C. or three hours at room temperature). A second reading was taken at 405 nm, and the first reading subtracted from it. Active compounds cause a reduction in the optical density readings when compared to the control without the agent being tested.

CC1OC(OC2C(CO)OC(OC3C(CO)OC(O)C(O)C3O)C(O)C2O)C(O)C(O)C1NC1C=C(CO)C(O)C(O)C1O (centres unmarked) [Acarbose, acarbose]
Group mean D-Lactate ([1]; 0 hours post second challenge): 0.67 mM
Group mean L-Lactate ([1]; 0 hours post second challenge): 0.35 mM
Group mean Total-Lactate ([1]; 0 hours post second challenge): 1.02 mM
acute acidosis following carbohydrate challenge ([1]; 1.07 mg/kg BW BID 7 days pre-challenge, via cannula): prevented acute acidosis
Group mean D-Lactate ([1]; 3 hours post second challenge): 3.63 mM
Group mean L-Lactate ([1]; 3 hours post second challenge): 1.28 mM
Group mean Total-Lactate ([1]; 3 hours post second challenge): 4.91 mM
Group mean D-Lactate ([1]; 5 hours post second challenge): 10.91 mM
Group mean L-Lactate ([1]; 5 hours post second challenge): 3.08 mM
Group mean Total-Lactate ([1]; 5 hours post second challenge): 13.99 mM
Group mean D-Lactate ([1]; 7 hours post second challenge): 18.00 mM
Group mean L-Lactate ([1]; 7 hours post second challenge): 4.93 mM
Group mean Total-Lactate ([1]; 7 hours post second challenge): 22.93 mM
rumen pH ([1]; after second carbohydrate challenge, all treated cattle, 1.07 mg/kg BW BID 7 days pre-challenge, via cannula): above 5.0
lactate level in rumen fluid ([1]; after second challenge, all acarbose-treated animals (four of five controls >50 mM)): remained at zero
L-lactate production in response to the load ([1]; twice a day treatment): blocked
pH responses to a high carbohydrate load ([1]; twice a day treatment): reduced
MIC (Salm. enteritidis; Salm. enteritidis B1218): >128 µg/mL
MIC (Salm. enteritidis; Salm. enteritidis B1227): >128 µg/mL
MIC (Salm. enteritidis; Salm. enteritidis B1231): >128 µg/mL
MIC (Salm. enteritidis; Salm. enteritidis B1232): >128 µg/mL
MIC (Salm. enteritidis; Salm. enteritidis B1233): >128 µg/mL
MIC (Salm. enteritidis; Salm. enteritidis B1235): >128 µg/mL
MIC (Salm. enteritidis; Salm. enteritidis B1240): >128 µg/mL
MIC (Salm. enteritidis; Salmonella enterica, ENTERITIDIS): > 128 µg/mL
IC50 [2]: 2030 nM
